Results published in US20240398793A1, “Methods of Treating Lymphedema” (Celltaxis, LLC, priority 2021, published 2024).
Read-outs that look alike come from different tables or passages of the source.

Legend:
LTA4H epoxide hydrolase [1] = biological target: T1, LTA4H epoxide hydrolase (Homo sapiens (Human), UniProt P09960); assay: LTA4H epoxide hydrolase enzymatic activity (LTB4 production) in vitro; assay type: biochemical; details: read-out: IC50, LTA4H-mediated production of LTB4
Procedure: The hydrolase-homogeneous time resolved fluorescence assay is a two-step assay that measures the hydrolysis of LTA4 to LTB4 by analyzing the amount of LTB4 produced. The first step involves the enzymatic conversion of LTA4 to LTB4 and the second step involves the quantification of the LTB4 formed with a homogeneous time resolved fluorescence assay. […] In the whole blood assay, the inhibitor compounds are tested for their ability to inhibit LTB4 release upon stimulation with calcium ionophore and the LTB4 levels in supernatants are measured by ELISA.

[2] = test system: LTB4 production in human whole blood; assay: LTB4 production in ex vivo stimulated human whole blood; assay type: cell-based
Description: The IC50 of LTA4H epoxide hydrolase activity can be measured using methods known in the art, for example, using the LTA4 hydrolase homogenous time resolved fluorescence assay which is described, for example, in U.S. Pat. Nos. 7,737,145 and 10,202,362; the contents of which are expressly incorporated by reference herein. The hydrolase-homogeneous time resolved fluorescence assay is a two-step assay that measures the hydrolysis of LTA4 to LTB4 by analyzing the amount of LTB4 produced. The first step involves the enzymatic conversion of LTA4 to LTB4 and the second step involves the quantification of the LTB4 formed with a homogeneous time resolved fluorescence assay. LTA4H epoxide hydrolase activity can also be measured in a whole blood assay, for example, using human whole blood, using the method described in Penning, T. D. et al., J. Med. Chem. (2000), 43 (4): 721-735 and U.S. Pat. No. 7,737,145; the contents of each of which are expressly incorporated by reference herein. In the whole blood assay, the inhibitor compounds are tested for their ability to inhibit LTB4 release upon stimulation with calcium ionophore and the LTB4 levels in supernatants are measured by ELISA. LTA4H epoxide hydrolase activity can also be measured according to the method described in Low et al. (2017). […]

LTB4 production in blood = assay: Human pharmacodynamic studies, inhibition of LTB4 production in blood; assay type: in vivo
[3] = test system: sputum white blood cells and neutrophils; assay: Sputum cell counts in CF patients; assay type: in vivo, human
[4] = test system: patients with cystic fibrosis; assay: Phase 2 study in adult CF patients, 48 weeks, efficacy; assay type: in vivo, human; details: for rate of pulmonary exacerbations: 48 weeks of treatment
[5] = Nonclinical pharmacokinetics and mass balance studies; assay type: in vivo, animals
[6] = Preclinical phototoxicity studies
[7] = Long-term animal safety studies; assay type: in vivo, animals
[8] = Human pharmacokinetics after oral administration; assay type: in vivo; details: for half-life / Tmax: human, plasma; for half-life: oral, read-out: T1/2 (elimination half-life); for Tmax: po
[9] = Serious adverse reactions, Phase 2 Acebilustat safety population; assay type: in vivo, human; details: Phase 2, N = 217
Description: SARs reported in the completed Phase 2 studies and suspected to be potentially related to drug treatment are tabulated below.

LTA4H aminopeptidase = LTA4H aminopeptidase (Homo sapiens (Human), UniProt P09960); details: Bhatt et al. (2017); read-out: LTA4H aminopeptidase potency; cited from earlier work
Sequence of LTA4H aminopeptidase (P09960 whole entry): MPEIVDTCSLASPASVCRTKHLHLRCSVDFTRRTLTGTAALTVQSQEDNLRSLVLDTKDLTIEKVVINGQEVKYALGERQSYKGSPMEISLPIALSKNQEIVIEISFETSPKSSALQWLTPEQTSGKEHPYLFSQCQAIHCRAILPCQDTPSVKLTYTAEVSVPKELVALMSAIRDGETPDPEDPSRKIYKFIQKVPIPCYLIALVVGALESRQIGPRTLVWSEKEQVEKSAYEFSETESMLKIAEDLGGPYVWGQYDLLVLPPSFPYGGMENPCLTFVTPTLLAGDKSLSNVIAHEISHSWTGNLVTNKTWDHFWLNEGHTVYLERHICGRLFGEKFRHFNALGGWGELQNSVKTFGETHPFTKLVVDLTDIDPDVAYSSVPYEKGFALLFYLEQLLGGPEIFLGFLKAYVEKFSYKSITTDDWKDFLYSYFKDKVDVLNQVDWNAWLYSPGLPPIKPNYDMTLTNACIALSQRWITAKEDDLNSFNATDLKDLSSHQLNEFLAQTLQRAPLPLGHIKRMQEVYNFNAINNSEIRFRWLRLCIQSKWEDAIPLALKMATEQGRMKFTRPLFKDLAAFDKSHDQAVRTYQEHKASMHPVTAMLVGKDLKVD

LTA4H epoxide hydrolase [10] = biological target: T1, LTA4H epoxide hydrolase; details: read-out: LTA4H epoxide hydrolase potency; Bhatt et al. (2017); cited from earlier work

T1 sequence (P09960 whole entry): as above

With `O=C(O)c1ccc(CN2C[C@@H]3C[C@H]2CN3Cc2ccc(Oc3ccc(-c4ncco4)cc3)cc2)cc1` [Acebilustat, 4-{[(1S,4S)-5-({4-[4-oxazol-2-yl-phenoxy]phenyl}methyl)-2,5-diazabicyclo[2.2.1]heptan-2-yl]methyl}benzoic acid] the IC50 (LTA4H epoxide hydrolase [1]) was 13 nM, the IC50 ([2]; ex vivo stimulated human whole blood) was 64 nM and the IC50 ([2]; human whole blood tested ex vivo, approximate) was ~0.0308 µg/mL. The inhibition at 50 mg (LTB4 production in blood; 50 mg dose, human pharmacodynamic studies) was ≥ 63%, the inhibition at 100 mg (LTB4 production in blood; 100 mg dose, human pharmacodynamic studies) was ≥ 74% and the inhibition at 150 mg (LTB4 production in blood; 150 mg dose, human pharmacodynamic studies) was ≥ 82%. For the same compound, the inhibition at 200 mg (LTB4 production in blood; 200 mg dose, human pharmacodynamic studies) was ≥ 85%, the EC50 (LTB4 production in blood; Homo sapiens, in vivo, humans, estimated) was 0.093 µg/mL and the EC50 (LTB4 production in blood; human clinical PD studies, blood) was 190 nM. For the same compound, the “EC50 for inhibition of LTB4 production” value (LTB4 production in blood; in vivo, humans, estimated) was 0.093 µg/mL, the “engagement of the pharmacologic mechanism in blood over 24-hour dosing interval” value (LTB4 production in blood; once-daily oral doses of 50 mg and above, phase 1 studies) was “significant engagement of the pharmacologic mechanism” and the sputum neutrophils decrease ([3]; 100 mg group) was 65%. The “sputum white blood cells decrease from Baseline” value ([3]; 100 mg group) was 60%, the sputum neutrophils decrease ([3]; all treated (50 to 100 mg)) was 34% and the “sputum white blood cells decrease from Baseline” value ([3]; all treated subjects (50 or 100 mg)) was 31%. For the same compound, the “change from baseline in percent predicted FEV1 versus placebo” value ([4]; 48-week Phase 2 CF study, primary endpoint) was “no statistically significant difference”, the “time to first pulmonary exacerbation” value ([4]; CF patients, 48 weeks, secondary efficacy analysis) was “concordant numerical benefit” and the risk of infection ([4]; adult CF patients, 48 weeks) was “no evidence of increased risk of infection”. For the same compound, the “rate of pulmonary exacerbations” value ([4]; adult CF patients) was “concordant numerical benefit”, the “rate of pulmonary exacerbations” value ([4]; adult CF patients, listed as acebilustat) was “showed promise in reducing the rate of pulmonary exacerbations” and the “accumulation and retention in pigmented tissues (uveal tract)” value ([5]; mass balance studies in animals) was “some potential for accumulation and retention”. For the same compound, the route of elimination ([5]; nonclinical) was “primarily via liver-bile-feces”, the “total drug excreted via kidneys” value ([5]; nonclinical) was “less than 3%” and the phototoxic effects [6] was “no potential for phototoxic effects”. For the same compound, the ophthalmologic changes ([7]; long term safety studies) was “no evidence for ophthalmologic changes”, the dose limiting toxicity ([7]; long-term animal safety studies across species) was “failure to gain weight associated with reduced food consumption” and the half-life ([8]; CF patients) was 8 to 9 h. The half-life ([8]; healthy volunteers) was 15 to 18 h, the Tmax ([8]; humans, fasting) was ~1.5 h and the Tmax ([8]; humans, with a high-fat meal) was 5 to 6 h. For the same compound, the “exposures (Cmax, AUC), healthy volunteers versus CF patients” value ([8]; humans) was “did not vary appreciably”, the “time to steady state exposure” value ([8]; humans, repeated dosing) was 7 days and the “effect of larger body size and concomitant CFTR modulator therapies on clearance” value ([8]; population PK, Phase 2 CF trial) was “increase clearance”. The “SAR Distal intestinal obstruction syndrome, # of Subjects” value [9] was 1, the “SAR Distal intestinal obstruction syndrome, Frequency” value [9] was 0.5% and the “SAR Distal intestinal obstruction syndrome, Intensity Mild” value [9] was 0. The “SAR Distal intestinal obstruction syndrome, Intensity Moderate” value [9] was 0, the “SAR Distal intestinal obstruction syndrome, Intensity Severe” value [9] was 1 and the “SAR Drug Induced Liver Injury, # of Subjects” value [9] was 1. The “SAR Drug Induced Liver Injury, Frequency” value [9] was 0.5%, the “SAR Drug Induced Liver Injury, Intensity Mild” value [9] was 0 and the “SAR Drug Induced Liver Injury, Intensity Moderate” value [9] was 0. For the same compound, the “SAR Drug Induced Liver Injury, Intensity Severe” value [9] was 1, the “SAR Gastrointestinal disorders, # of Subjects” value [9] was 1 and the “SAR Gastrointestinal disorders, Frequency” value [9] was 0.5%. For the same compound, the “SAR Gastrointestinal disorders, Intensity Mild” value [9] was 0, the “SAR Gastrointestinal disorders, Intensity Moderate” value [9] was 0 and the “SAR Gastrointestinal disorders, Intensity Severe” value [9] was 1. The “SAR Hepatobiliary Disorders, # of Subjects” value [9] was 1, the “SAR Hepatobiliary Disorders, Frequency” value [9] was 0.5% and the “SAR Hepatobiliary Disorders, Intensity Mild” value [9] was 0. For the same compound, the “SAR Hepatobiliary Disorders, Intensity Moderate” value [9] was 0, the “SAR Hepatobiliary Disorders, Intensity Severe” value [9] was 1 and the “SAR Infections and infestations, # of Subjects” value [9] was 1. For the same compound, the “SAR Infections and infestations, Frequency” value [9] was 0.5%, the “SAR Infections and infestations, Intensity Mild” value [9] was 0 and the “SAR Infections and infestations, Intensity Moderate” value [9] was 0. The “SAR Infections and infestations, Intensity Severe” value [9] was 1, the “SAR Infective pulmonary exacerbation of cystic fibrosis, # of Subjects” value [9] was 1 and the “SAR Infective pulmonary exacerbation of cystic fibrosis, Frequency” value [9] was 0.5%. For the same compound, the “SAR Infective pulmonary exacerbation of cystic fibrosis, Intensity Mild” value [9] was 0, the “SAR Infective pulmonary exacerbation of cystic fibrosis, Intensity Moderate” value [9] was 0 and the “SAR Infective pulmonary exacerbation of cystic fibrosis, Intensity Severe” value [9] was 1. The IC50 (LTA4H aminopeptidase) was 27 nM and the IC50 (LTA4H epoxide hydrolase [10]) was 12 nM.
